Experimental findings from the Deep4Chem optical property database are described below.

One series can be described thus: solvent given as SMILES. The conditions noted are these: in CCO.
Compound `COc1ccc2c(c1)-c1ccccc1C2=O` had an emission maximum of 549 nm.
On the same count and under the same terms, the same measure for `CN(C)c1ccc(/C=C/C=C2\CC/C(=C\c3ccc(N(C)C)cc3)C2=O)cc1`: 725 nm; for `CNc1cccc2c1C(=O)c1ccccc1-2`: 542 nm; for `COCCOc1ccc(OCCOC)c(C=O)c1`: 462 nm.
The same measure, in the same setting: the same measure for `CC(C)n1c2cc(O)c(F)cc2c(=O)c2cc(F)c(O)cc21`: 438 nm.
Same read-out and setting: the value for `CCN(CC)c1ccc2cc(C#N)/c(=N\C(=O)C(C)C)oc2c1` was 470 nm.

The series is the same for the next values; noted with them: in CCOC(=O)c1ccccc1.
For `CN(C)c1ccc(/C=C/C=C2\CC/C(=C\c3ccc(N(C)C)cc3)C2=O)cc1`, the emission maximum is recorded as 604 nm.

Staying with this series, now noted: in CCOC(C)=O.
The compound `COc1cccc(OC)c1C1=C2C(C)=CC(C)=[N+]2[B-](F)(F)n2c(C)cc(C)c21` showed an emission maximum of 520 nm.
Same read-out and setting: the same measure for `CN(C)c1ccc(/C=C/C=C2\CC/C(=C\c3ccc(N(C)C)cc3)C2=O)cc1`: 591 nm; for `COc1cc(OC)c(C2=C3C(C)=CC(C)=[N+]3[B-](F)(F)n3c(C)cc(C)c32)c(OC)c1`: 511 nm.

The same series, now with this note: in CCOCC.
In turn, `CN(C)c1ccc(/C=C/C=C2\CC/C(=C\c3ccc(N(C)C)cc3)C2=O)cc1` gave an emission maximum of 546 nm.

Still in this series, the particulars now being: in CN(C)C=O.
Compound `CN(C)c1ccc(/C=C/C=C2\CC/C(=C\c3ccc(N(C)C)cc3)C2=O)cc1` registered an emission maximum of 656 nm.
`N#Cc1c2nc3ccccn3c2nc2nc3ccccn3c12` came in with an emission maximum of 540 nm.
Consider `COCCOc1ccc(OCCOC)c(C=O)c1`, for which the emission maximum is 425 nm.

The series is the same for the next values; noted with them: in CNC=O.
`COCCOc1ccc(OCCOC)c(C=O)c1` registered an emission maximum of 459 nm.

Still in this series, the particulars now being: in CO.
The compound `ClC(Cl)=C1c2ccccc2C(C2(Cl)c3ccccc3C(=C(Cl)Cl)c3ccccc32)c2ccccc21` (centres undefined) gave an emission maximum of 449.43 nm.
On to `COc1cccc(OC)c1C1=C2C(C)=CC(C)=[N+]2[B-](F)(F)n2c(C)cc(C)c21`, for which the emission maximum was determined as 518 nm.
`CN(C)c1ccc(/C=C/C=C2\CC/C(=C\c3ccc(N(C)C)cc3)C2=O)cc1`: the emission maximum is on record as 737 nm.
Still for that read-out and setting: the same measure for `COCCOc1ccc(OCCOC)c(C=O)c1`: 467 nm; for `COc1cc(OC)c(C2=C3C(C)=CC(C)=[N+]3[B-](F)(F)n3c(C)cc(C)c32)c(OC)c1`: 515 nm.
Regarding `CSc1ccc2c(c1)N(CCCN1CCN(C)CN1C)c1ccccc1S2`, the emission maximum stood at 453 nm.

Still in this series, the particulars now being: in CS(C)=O.
With `CN(C)c1ccc(/C=C/C=C2\CC/C(=C\c3ccc(N(C)C)cc3)C2=O)cc1`, the emission maximum is given as 676 nm.

The series is the same for the next values; noted with them: in Cc1ccccc1.
With `CC1(C)c2ccccc2N(c2ccc(C(=CC#N)c3ccc(N4c5ccccc5C(C)(C)c5ccccc54)cc3)cc2)c2ccccc21`, the emission maximum came out at 519 nm.
The same measure, in the same setting: the same measure for `CN(C)c1ccc(/C=C/C=C2\CC/C(=C\c3ccc(N(C)C)cc3)C2=O)cc1`: 530 nm; for `CC(C)(C)c1ccc2c(c1)sc1[n+]2[B-](F)(F)n2c(c3cccc4c(Br)ccc2c43)=C1C#N`: 563 nm.
The same measure, in the same setting: the value for `CC(C)(C)c1ccc2c(c1)Sc1cc(C(C)(C)C)ccc1N2c1ccc2c(ccc3nc4ccc5cc(N6c7ccc(C(C)(C)C)cc7Sc7cc(C(C)(C)C)ccc76)ccc5c4nc32)c1` was 682 nm.

Still in this series, the particulars now being: in ClC(Cl)(Cl)Cl.
With `CN(C)c1ccc(/C=C/C=C2\CC/C(=C\c3ccc(N(C)C)cc3)C2=O)cc1`, the emission maximum came to 515 nm.

The same series, now with this note: in ClC(Cl)Cl.
On to `CN(C)c1ccc(/C=C/C=C2\CC/C(=C\c3ccc(N(C)C)cc3)C2=O)cc1`, for which the emission maximum came out at 623 nm.
On the same count and under the same terms, the value for `Cc1ccc(C#Cc2ccc(C#Cc3ccc(C#Cc4ccccc4C#N)cc3C#N)cc2C#N)cc1` was 403 nm; that for `Cc1ccc(C2=Cc3c4ccccc4cc[n+]3[B-](F)(F)O2)cc1` was 471 nm.
Regarding `COc1ccc(N(c2ccc(OC)cc2)c2ccc(-c3ccc(-c4ccc(-c5cccs5)c5nsnc45)s3)cc2)cc1`, the emission maximum came out at 705 nm.
The compound `N#Cc1c2nc3ccccn3c2nc2nc3ccccn3c12` had an emission maximum of 510 nm.
`CCCCCCCCCCCCSc1cc2c3c(ccc4c5c(SCCCCCCCCCCCC)cc6c7c(ccc(c1c34)c75)C(=O)N(C1CCCCC1)C6=O)C(=O)N(C1CCCCC1)C2=O` had an emission maximum of 655 nm.
With `CCc1cc(CC)cc(-n2c3ccccc3c3cc4c(cc32)c2ccccc2n4-c2cc(CC)cc(CC)c2)c1`, the emission maximum is recorded as 416 nm.

The series is the same for the next values; noted with them: in ClCCl.
Compound `COc1ccc(CCNC(=O)c2sc(-c3ccc(-c4cc(-c5ccc(C(C)(C)C)cc5)c(C(=O)NCCc5ccc(OC)c(OC)c5)s4)s3)cc2-c2ccc(C(C)(C)C)cc2)cc1OC` gave an emission maximum of 449 nm.
Compound `Cc1c(C(=O)c2c(F)cc(F)cc2F)c2ccc3cccc4c5cccc6ccc1c(c65)c2c34` had an emission maximum of 499 nm.
The same measure, in the same setting: the value for `C(#Cc1cccc2nsnc12)c1ccc(-n2c3ccccc3c3ccccc32)cc1` was 538 nm; that for `CN(C)c1ccc(/C=C/C=C2\CC/C(=C\c3ccc(N(C)C)cc3)C2=O)cc1` was 635 nm.
Take `CC(C)(C)c1ccc2c(c1)sc1[n+]2[B-](F)(F)n2c(c3cccc4c(Br)ccc2c43)=C1C#N`: the emission maximum is 560 nm.
Same read-out and setting: the same measure for `CCN(CC)c1ccc2cc(C#N)/c(=N\C(=O)C(C)C)oc2c1`: 460 nm.

The series is the same for the next values; noted with them: in Clc1ccccc1Cl.
`CN(C)c1ccc(/C=C/C=C2\CC/C(=C\c3ccc(N(C)C)cc3)C2=O)cc1` had an emission maximum of 608 nm.

The same series, now with this note: in NC=O.
In turn, `COCCOc1ccc(OCCOC)c(C=O)c1` showed an emission maximum of 464 nm.

Staying with this series, now noted: in O.
Compound `COCCOc1ccc(OCCOC)c(C=O)c1` registered an emission maximum of 483 nm.
Regarding `CC1(CCCCC(=O)NCCCCCCO)C(/C=C/C=C/C=C2/N(CCCS(=O)(=O)[O-])c3ccc(S(=O)(=O)[O-])cc3C2(C)C)=[N+](CCCS(=O)(=O)[O-])c2ccc(S(=O)(=O)[O-])cc21` (centres undefined), the emission maximum amounted to 672 nm.
On the same count and under the same terms, the value for `CSc1ccc2c(c1)N(CCCN1CCN(C)CN1C)c1ccccc1S2` was 466 nm.

The same series, now with this note: in S=C=S.
The compound `CN(C)c1ccc(/C=C/C=C2\CC/C(=C\c3ccc(N(C)C)cc3)C2=O)cc1` displayed an emission maximum of 540 nm.

The series is the same for the next values; noted with them: in c1ccccc1.
`CN(C)c1ccc(/C=C/C=C2\CC/C(=C\c3ccc(N(C)C)cc3)C2=O)cc1` yielded an emission maximum of 532 nm.
As to `CNc1cccc2c1C(=O)c1ccccc1-2`, the emission maximum is given as 519 nm.

The same series, now with this note: in c1ccncc1.
Compound `CN(C)c1ccc(/C=C/C=C2\CC/C(=C\c3ccc(N(C)C)cc3)C2=O)cc1` showed an emission maximum of 643 nm.
